{"source": "PubChem BioAssay AID652047", "about": "(Broad Institute, 2013)", "tested_on": "P. falciparum 3D7 in RBCs, SYBR Green DNA fluorescence", "experiment": "antimalarial activity against intraerythrocytic 3D7 parasites – 3D7 strain, red blood cells, SYBR Green, cherry-picked, dose response (AID 652047)", "note": "Several values for one entry are separate records, joined by “and”; a condition that tells them apart may be missing. Equal values may be shown once.", "data": [{"smiles": "CCC1=NN(C(=O)c2cccc(Br)c2)C(O)(c2ccc(Br)cc2)C1", "note": "(configuration not stated)", "values": [{"measurement": "AC35", "value": 14.7, "unit": "µM"}]}, {"smiles": "O=C1c2cccc(Cl)c2C(=O)c2c1cccc2N1CCCC1", "values": [{"measurement": "AC35", "value": 22.7, "unit": "µM"}]}, {"smiles": "COc1ccc(-c2cc(C(=O)N3CCN(c4ccccc4F)CC3)c3ccccc3n2)c(OC)c1", "values": [{"measurement": "AC35", "value": 9.76, "unit": "µM"}]}, {"smiles": "CC(C)(C)C(O)C(Cc1ccccc1Cl)n1cncn1", "note": "(configuration not stated)", "values": [{"measurement": "AC35", "value": 25.7, "unit": "µM"}]}, {"smiles": "CCCC(C)Sc1nc2c([nH]1)c(=S)n(C)c(=O)n2C", "note": "(configuration not stated)", "values": [{"measurement": "AC35", "value": 4.74, "unit": "µM"}]}, {"smiles": "C=CCn1c(-c2cc(-c3ccc(C)cc3)nc3ccccc23)n[nH]c1=S", "values": [{"measurement": "AC35", "value": 15.5, "unit": "µM"}]}, {"smiles": "O=C(c1ccc(-c2ccccc2)cc1)C1CCCN(C(=O)c2cncs2)C1", "note": "(configuration not stated)", "values": [{"measurement": "AC35", "value": 9.45, "unit": "µM"}]}, {"smiles": "Cc1oc2c(c1C(=O)c1ccccc1)C(=O)C(=O)c1ccccc1-2", "values": [{"measurement": "AC35", "value": 3.23, "unit": "µM"}]}, {"smiles": "O=c1c2ccccc2c(-c2ccc(O)cc2)nn1-c1cccc(C(F)(F)F)c1", "values": [{"measurement": "AC35", "value": 5.55, "unit": "µM"}]}, {"smiles": "Cc1[nH]n(-c2ccccc2)c(=O)c1/C=N/Nc1nncc(-c2ccccc2)n1", "values": [{"measurement": "AC35", "value": 1.2, "unit": "µM"}]}, {"smiles": "Cc1ccc(C)c(/C=C/C(=O)c2ccccc(=O)c2O)c1", "values": [{"measurement": "AC35", "value": 7.91, "unit": "µM"}]}, {"smiles": "Cc1c(C2(O)CCCCC2)[nH]c2ccc(C(F)(F)F)cc12", "values": [{"measurement": "AC35", "value": 27.4, "unit": "µM"}]}, {"smiles": "CC[n+]1c(/C=C/C=C/c2ccc(N(C)C)cc2)sc2ccccc21", "values": [{"measurement": "AC35", "value": 6.28, "unit": "µM"}]}, {"smiles": "CCOC(=O)N1C(=O)C2(CCCCC2)N(c2ccccc2Cl)C1=S", "values": [{"measurement": "AC35", "value": 12.8, "unit": "µM"}]}, {"smiles": "C=CCOC(Cn1ccnc1)c1ccc(Cl)cc1Cl", "note": "(configuration not stated)", "values": [{"measurement": "AC35", "value": 6.08, "unit": "µM"}]}, {"smiles": "CCCCCOc1ccc(CSc2n[nH]c(C)n2)cc1", "values": [{"measurement": "AC35", "value": 18.6, "unit": "µM"}]}, {"smiles": "Cc1ccc(NS(=O)(=O)c2ccc(N3CCN(c4ccc(O)cc4)CC3)c([N+](=O)[O-])c2)c(C)c1", "values": [{"measurement": "AC35", "value": 17.2, "unit": "µM"}]}, {"smiles": "CCC(C)Sc1cccc(-c2nc3ccccn3c2NCc2ccccc2)c1", "note": "(configuration not stated)", "values": [{"measurement": "AC35", "value": 16.8, "unit": "µM"}]}, {"smiles": "COc1ccc(O)c(C(=O)CC(=O)c2ccc(F)cc2)c1", "values": [{"measurement": "AC35", "value": 16.1, "unit": "µM"}]}, {"smiles": "Cc1ccc(NC(=O)CN(C)C(=O)c2cccnc2Nc2cccc(C(F)(F)F)c2)cc1", "values": [{"measurement": "AC35", "value": 7.58, "unit": "µM"}]}, {"smiles": "Cc1ccc(S(=O)(=O)Nc2ccc(O)c3cccnc23)cc1", "values": [{"measurement": "AC35", "value": 7.02, "unit": "µM"}]}, {"smiles": "COc1cccc(/C=N/Nc2ncnc3scc(-c4ccccc4)c23)c1O", "values": [{"measurement": "AC35", "value": 1.91, "unit": "µM"}]}, {"smiles": "CC(C)=CCc1c(O)ccc(C(=O)Cc2ccccc2)c1O", "values": [{"measurement": "AC35", "value": 16.4, "unit": "µM"}]}, {"smiles": "Clc1ccc(COC(Cn2ccnc2)c2ccc(Cl)cc2Cl)c(Cl)c1", "note": "(configuration not stated)", "values": [{"measurement": "AC35", "value": "1.2 µM and 1.52 µM"}]}, {"smiles": "Cc1ccc2c(C)c3ccc4ccccc4c3c[n+]2c1", "values": [{"measurement": "AC35", "value": 0.0368, "unit": "µM"}]}, {"smiles": "Cc1ccccc1Oc1nc(-c2ccccn2)nc2ccccc12", "values": [{"measurement": "AC35", "value": 2.17, "unit": "µM"}]}, {"smiles": "CCCCCCCCCCOC(=O)Cn1c(COc2ccccc2OC)[n+](C)c2ccccc21", "values": [{"measurement": "AC35", "value": 0.401, "unit": "µM"}]}, {"smiles": "O=C1OCC(CO)(CO)N=C1NNc1ccc(Cl)c(Cl)c1", "values": [{"measurement": "AC35", "value": 19.1, "unit": "µM"}]}, {"smiles": "CC1CCc2c(C(=O)Nc3ccccn3)csc2C1", "note": "(configuration not stated)", "values": [{"measurement": "AC35", "value": 28.7, "unit": "µM"}]}, {"smiles": "CC1=CC(=O)C=C(C)C1=NOS(=O)(=O)c1ccccc1", "values": [{"measurement": "AC35", "value": 17.4, "unit": "µM"}]}, {"smiles": "Cc1ccsc1/C=C/c1ccc2cccc(O)c2n1", "values": [{"measurement": "AC35", "value": 14.2, "unit": "µM"}]}, {"smiles": "CC(C)(C)n1nc(Cc2cccc3ccccc23)c2c(N)ncnc21", "values": [{"measurement": "AC35", "value": 25.7, "unit": "µM"}]}, {"smiles": "c1ccc(CSc2ccc(-c3ccccn3)nn2)nc1", "values": [{"measurement": "AC35", "value": 19, "unit": "µM"}]}, {"smiles": "Cc1cccc2sc(NNC(=O)c3ccc(S(=O)(=O)N4CCCC(C)C4)cc3)nc12", "note": "(configuration not stated)", "values": [{"measurement": "AC35", "value": 3.46, "unit": "µM"}]}, {"smiles": "O=c1c2ccccc2nc(-c2cccc(Cl)c2)n1O", "values": [{"measurement": "AC35", "value": 25.4, "unit": "µM"}]}, {"smiles": "CC(C)C(=O)NC(c1ccco1)c1ccc2cccnc2c1O", "note": "(configuration not stated)", "values": [{"measurement": "AC35", "value": 2.02, "unit": "µM"}]}, {"smiles": "C[n+]1c2cc(N)ccc2cc2ccc(N)cc21", "values": [{"measurement": "AC35", "value": 0.0327, "unit": "µM"}]}, {"smiles": "CC(C)N1CCN(c2ccc(OC[C@H]3CO[C@](Cn4cncn4)(c4ccc(Cl)cc4Cl)O3)cc2)CC1", "values": [{"measurement": "AC35", "value": 5.3, "unit": "µM"}]}, {"smiles": "COc1cc2cnc(-c3ccccc3)c(C(=O)c3ccc(F)cc3)c2cc1OC", "values": [{"measurement": "AC35", "value": 34.4, "unit": "µM"}]}, {"smiles": "CCCCNc1c(-c2cccc(Sc3ccc(OC)cc3)c2)nc2ccccn12", "values": [{"measurement": "AC35", "value": 15.3, "unit": "µM"}]}, {"smiles": "Clc1ccc(C2=NCCN2)cc1", "values": [{"measurement": "AC35", "value": 5.64, "unit": "µM"}]}, {"smiles": "Cc1ccoc1C(=O)Nc1cccc(Oc2ccccc2)c1", "values": [{"measurement": "AC35", "value": 10.4, "unit": "µM"}]}, {"smiles": "O=[N+]([O-])c1ccc(Sc2cccc[n+]2[O-])c2nonc12", "values": [{"measurement": "AC35", "value": 0.657, "unit": "µM"}]}, {"smiles": "CCCCCCn1c(=O)c(C(=O)Nc2ncccc2C)c(O)c2ccccc21", "values": [{"measurement": "AC35", "value": 2.57, "unit": "µM"}]}, {"smiles": "CC(/C=N/n1c(COc2ccccc2)n[nH]c1=S)=C\\c1ccccc1", "values": [{"measurement": "AC35", "value": 37.3, "unit": "µM"}]}, {"smiles": "Cc1ccc2oc(-c3ccccc3)c(C(=O)O)c(=O)c2c1", "values": [{"measurement": "AC35", "value": 16.2, "unit": "µM"}]}, {"smiles": "O=C(Nc1nnc(-c2ccccc2)o1)c1ccc(Cl)cc1", "values": [{"measurement": "AC35", "value": 12.4, "unit": "µM"}]}, {"smiles": "O=C(Nc1nnc(-c2cccs2)o1)c1cccc(Oc2ccccc2)c1", "values": [{"measurement": "AC35", "value": 23, "unit": "µM"}]}, {"smiles": "CCCCNc1c(-c2ccc(-c3ccc(OC)cc3)c(OC)c2)nc2ccccn12", "values": [{"measurement": "AC35", "value": 5.67, "unit": "µM"}]}, {"smiles": "COc1ccc(N=N/C(=C\\O)C(=O)c2cccs2)cc1", "values": [{"measurement": "AC35", "value": 7.16, "unit": "µM"}]}, {"smiles": "CC(=O)C1=C(c2cccc([N+](=O)[O-])c2)N(C(C)=O)n2c(C)nnc2S1", "values": [{"measurement": "AC35", "value": 0.836, "unit": "µM"}]}, {"smiles": "O=C(CSc1ccc(-c2ccccn2)nn1)NCc1ccc(F)cc1", "values": [{"measurement": "AC35", "value": 28.7, "unit": "µM"}]}, {"smiles": "COc1ccc(/C=N/Nc2cc(C)nc(-n3nc(C)cc3C)n2)cc1", "values": [{"measurement": "AC35", "value": 1.06, "unit": "µM"}]}, {"smiles": "Cc1csc(NC(=O)C(C)Oc2ccc(Cl)cc2C)n1", "note": "(configuration not stated)", "values": [{"measurement": "AC35", "value": 38.3, "unit": "µM"}]}, {"smiles": "CCC(NC(=S)NCc1ccc(F)cc1)c1ccc(C(C)C)cc1", "note": "(configuration not stated)", "values": [{"measurement": "AC35", "value": 11.8, "unit": "µM"}]}, {"smiles": "COc1cc([N+](=O)[O-])cc(/C=N/NC(=O)c2cncc(Br)c2)c1O", "values": [{"measurement": "AC35", "value": 11.7, "unit": "µM"}]}, {"smiles": "COc1ccc2oc(=O)c(-c3csc(Nc4cccc(O)c4)n3)cc2c1", "values": [{"measurement": "AC35", "value": 15.7, "unit": "µM"}]}]}
